Results taken from article PMC9036627, “Global update on the susceptibility of human influenza viruses to neuraminidase inhibitors, 2013–2014” (Antiviral research, 2015).

Experiments:
[1] = tested on: neuraminidase (NA) of B/Yamagata-lineage viruses; type: biochemical, influenza B/Yamagata-lineage virus
[2] = tested on: former seasonal A(H1N1) H275Y virus; conditions: ref Kawai et al., 2009, Dharan et al., 2010, Matsuzaki et al., Saito et al.; cited from earlier work
[3] = tested on: former seasonal A(H1N1) H275Y virus; conditions: ref Kawai et al., 2009, Dharan et al., 2010, Matsuzaki et al., Saito et al.; cited from earlier work; remark: listed apart in the source
[4] = tested on: neuraminidase (NA) of B/Victoria-lineage viruses; type: biochemical, influenza B/Victoria-lineage virus
[5] = tested on: neuraminidase (NA) of A(H1N1)pdm09 viruses; type: biochemical, influenza A(H1N1)pdm09 virus

Structure (SMILES) | inhibition category (HRI/RI/NI) [1] | clinical resistance [2] | inhibition category in vitro [3] | inhibition category (HRI/RI/NI) [4] | effect of NA substitution on susceptibility [1] | effect of NA substitution on susceptibility [5] | Included in phenotypic analysis: inhibition category (HRI/RI/NI) [5]
CCOC(=O)C1=C[C@@H](OC(CC)CC)[C@H](NC(C)=O)[C@@H](N)C1 [Oseltamivir, oseltamivir] | RI (key: NI < 5-fold; RI 5 to 50-fold; HRI > 50-fold) | clinically resistant | HRI (HRI > 100-fold) | RI (key: NI < 5-fold; RI 5 to 50-fold; HRI > 50-fold) | – | – | –
CC(=O)N[C@H]1[C@H]([C@H](O)[C@H](O)CO)OC(C(=O)O)=C[C@@H]1N=C(N)N [Zanamivir, zanamivir] | – | – | – | HRI (key: NI < 5-fold; RI 5 to 50-fold; HRI > 50-fold) | no effect | little or no effect | –
CCC(CC)[C@H](NC(C)=O)[C@@H]1[C@H](O)[C@@H](C(=O)O)C[C@H]1N=C(N)N [Peramivir, peramivir] | – | – | HRI (HRI > 100-fold) | HRI (key: NI < 5-fold; RI 5 to 50-fold; HRI > 50-fold) | – | – | –
[H]/N=C(\N)N[C@H]1C=C(C(=O)O)O[C@@H]([C@H](OC)[C@H](O)CO)[C@@H]1NC(C)=O [Laninamivir, laninamivir] | – | – | – | HRI (key: NI < 5-fold; RI 5 to 50-fold; HRI > 50-fold) | no effect | little or no effect | RI (key: NI < 10-fold; RI 10 to 100-fold; HRI > 100-fold)
